Test results reported in patent US20170224653A1, “TLR-INDEPENDENT SMALL MOLECULE ADJUVANTS” (The Scripps Research Institute, priority 2014, published 2017).

Experiments:
mouse macrophages = test: TNF-α production in macrophages from mice with germline mutations or knockouts of TLR and signaling genes; format: cell-based
From the text: Induced TNF-α production was established with the use of macrophages from mice bearing germline genetic defects or knockouts of each of the genes encoding the TLRs or their downstream signaling molecules uniquely available in the laboratories of Professor Bruce Beutler, (University of Texas Southwestern Medical Center, Dallas, Tex.). See, (a) mutagenetix.utsouthwestern.edu.; (b) Arnold et al., (2012) ENU-induced phenovariance in mice: Inferences from 587 mutations. BMC Res. Notes. 5, 577-0500-5-577.

TLR ligands = test: Mechanistic studies: responses to TLR ligands; format: cell-based; settings: TLR ligands including neoseptin-3
C57BL/6J mice = test: Adjuvant effect with ovalbumin, intramuscular immunization, serum OVA-specific IgG by ELISA; format: in vivo, mouse
Procedure: In FIG. 3, adjuvants were mixed with ovalbumin (OVA, 100 μg) and injected intramuscularly into C57BL/6J mice at the indicated doses. Two immunizations were administered with a booster given at 7 days.
FIG. 4 provides a series of graphs that show anti-olvalbumin titers at 14 days post immunization using adjuvants with ovalbumin (OVA, 100 μg) and injected intramuscularly into C57BL/6J mice. The adjuvants used were Compound 125-03, neoseptin-3 (below), LPS, MPLA (monophosphoryl lipid A from […]

Cyld = target: T1, Cyld (Homo sapiens, UniProt Q9NQC7); test: In vitro assay of Cyld activity; format: biochemical
T1 sequence (Q9NQC7 1-956): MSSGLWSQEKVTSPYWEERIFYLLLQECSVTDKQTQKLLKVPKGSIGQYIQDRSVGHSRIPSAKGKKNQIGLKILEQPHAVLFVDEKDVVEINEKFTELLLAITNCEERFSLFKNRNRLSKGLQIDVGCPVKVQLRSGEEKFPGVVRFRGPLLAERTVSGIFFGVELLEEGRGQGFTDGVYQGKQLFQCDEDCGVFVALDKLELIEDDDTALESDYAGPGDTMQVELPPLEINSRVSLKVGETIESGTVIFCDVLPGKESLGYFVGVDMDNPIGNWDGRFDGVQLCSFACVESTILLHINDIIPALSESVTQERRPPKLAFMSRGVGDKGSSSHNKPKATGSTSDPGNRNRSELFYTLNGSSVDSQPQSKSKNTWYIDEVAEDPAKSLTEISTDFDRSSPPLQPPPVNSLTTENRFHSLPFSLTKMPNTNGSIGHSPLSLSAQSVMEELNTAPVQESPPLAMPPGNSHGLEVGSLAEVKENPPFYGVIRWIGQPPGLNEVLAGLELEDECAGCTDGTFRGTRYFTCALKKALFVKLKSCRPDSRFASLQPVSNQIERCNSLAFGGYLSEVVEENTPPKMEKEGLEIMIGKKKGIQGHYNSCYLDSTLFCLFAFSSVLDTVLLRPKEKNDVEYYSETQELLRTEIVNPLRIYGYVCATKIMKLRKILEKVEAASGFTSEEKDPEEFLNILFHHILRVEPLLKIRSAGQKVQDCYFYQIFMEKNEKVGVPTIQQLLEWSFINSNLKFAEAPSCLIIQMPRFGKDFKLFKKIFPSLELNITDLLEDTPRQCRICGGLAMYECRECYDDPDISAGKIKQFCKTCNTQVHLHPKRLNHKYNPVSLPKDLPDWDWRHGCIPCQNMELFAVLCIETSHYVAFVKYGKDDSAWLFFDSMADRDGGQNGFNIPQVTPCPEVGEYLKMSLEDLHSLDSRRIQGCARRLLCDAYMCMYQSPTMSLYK

[1] = Overt toxicity when used as an adjuvant at maximum doses; format: in vivo; settings: maximum doses capable of administration, compared with LPS
THP-1 cells = test: TNF-α production upon compound treatment of THP-1 cells; format: cell-based; settings: FIG. 2
TLR4 = target: T2, TLR4 (Mus musculus, UniProt Q9JHF9+Q9QUK6); test: TLR4 agonist activity, stimulated TNF-alpha release in mouse macrophages; format: cell-based; settings: for TLR4 agonist efficacy: relative to neoseptin-1 or LPS
T2 construct: measuring the stimulated TNF-alpha release in mouse macrophages; endogenous in cells; host or cells: mouse macrophages
T2 sequence (Q9QUK6 26-835): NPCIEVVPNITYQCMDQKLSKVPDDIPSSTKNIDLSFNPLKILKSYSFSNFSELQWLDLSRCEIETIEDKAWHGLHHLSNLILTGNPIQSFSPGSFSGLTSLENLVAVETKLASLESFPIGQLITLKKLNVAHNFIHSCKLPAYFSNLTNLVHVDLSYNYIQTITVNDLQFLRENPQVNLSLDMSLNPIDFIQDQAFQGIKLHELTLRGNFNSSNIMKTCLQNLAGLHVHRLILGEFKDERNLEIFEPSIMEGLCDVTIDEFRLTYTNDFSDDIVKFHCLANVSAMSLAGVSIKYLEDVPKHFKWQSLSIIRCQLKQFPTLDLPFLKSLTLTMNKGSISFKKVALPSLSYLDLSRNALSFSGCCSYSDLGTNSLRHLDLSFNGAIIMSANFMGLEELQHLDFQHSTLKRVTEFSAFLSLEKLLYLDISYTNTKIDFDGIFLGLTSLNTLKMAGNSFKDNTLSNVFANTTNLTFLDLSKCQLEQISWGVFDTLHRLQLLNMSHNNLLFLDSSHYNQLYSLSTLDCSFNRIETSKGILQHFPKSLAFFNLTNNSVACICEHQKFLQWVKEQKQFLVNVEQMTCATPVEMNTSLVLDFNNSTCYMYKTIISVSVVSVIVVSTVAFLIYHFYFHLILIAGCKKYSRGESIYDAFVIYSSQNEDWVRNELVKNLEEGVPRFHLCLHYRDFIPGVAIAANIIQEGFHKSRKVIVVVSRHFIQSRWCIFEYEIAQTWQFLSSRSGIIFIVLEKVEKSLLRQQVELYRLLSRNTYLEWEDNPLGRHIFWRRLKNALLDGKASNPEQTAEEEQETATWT
T2 sequence (Q9JHF9 19-160): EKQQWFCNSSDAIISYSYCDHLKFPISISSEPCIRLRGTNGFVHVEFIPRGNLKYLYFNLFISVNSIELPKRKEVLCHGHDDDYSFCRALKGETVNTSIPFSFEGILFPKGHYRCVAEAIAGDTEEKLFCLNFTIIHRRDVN
From the text: In efforts to improve the TLR4 agonist activity of an initial screening lead, neoseptin-1 (below), measuring the stimulated TNF-alpha release in mouse macrophages, Compound 125-03, used herein as illustrative of the contemplated compounds, emerged as a key compound capable of stimulating the immune response (below). […] [TLRs […] have been lost from the mouse genome, and TLRs 11, 12 and 13 have been lost from the human genome. Beutler, Blood, 113:1399-1407 (2009).]

O=C(NCCCc1ccccc1)c1ccc(NC(=O)c2cc3ccccc3o2)c(OCCc2ccc(O)cc2)c1 [Compound 125-03, N-(2-(4-Hydroxyphenethoxy)-4-((3-phenylpropyl)-carbamoyl)phenyl)benzofuran-2-carboxamide]
TLR dependence of stimulated TNF-alpha production (mouse macrophages; macrophages from mice with disabling mutations or knockouts of TLR genes, FIG. 1): independent of the TLRs including TLR4/MD-2 | stimulating the release of TNF-alpha in mouse macrophages (mouse macrophages; mouse macrophages): active | effect on responses to TLR ligands (TLR ligands): markedly increased responses to TLR ligands | adjuvant activity, serum OVA-specific IgG (C57BL/6J mice; OVA 100 μg, intramuscular, booster at 7 days, day 35 post-immunization, FIG. 3): robust, dose-dependent adjuvant activity | adjuvant activity compared with alum (C57BL/6J mice; anti-ovalbumin titers, 14 days post immunization, concentrations used, FIG. 4): more effective than alum | effect on Cyld activity (Cyld): directly inhibits Cyld activity | overt toxicity [1]: did not display the overt toxicity | release of TNF-alpha from differentiated human THP-1 cells (THP-1 cells): dose dependent activity

CC(C)(C)OC(=O)[C@H](CCc1ccccc1)NC(=O)c1ccc(N)c(CCc2ccc(O)cc2)c1 [neoseptin-3, reference compound]
TLR4 agonism (TLR4): TLR4-agonist | TLR4 agonist efficacy (TLR4): nearly matching the efficacy of LPS | concentration needed for an antibody response similar to Compound 125-03 (C57BL/6J mice; at fourteen days): about twice the concentration | release of TNF-alpha from differentiated human THP-1 cells (THP-1 cells): not active in human cells

N[C@@H](Cc1ccccc1)C(=O)Nc1ccc(C(=O)N[C@@H](CCc2ccccc2)C(=O)O)cc1CCc1ccc(O)cc1 [MM-1-88]
TLR4 agonist efficacy (TLR4): significant enhancement in TLR4 agonist efficacy
